Measurements published in ChEMBL document CHEMBL1136877, “2,4(5)-diarylimidazoles as inhibitors of hNaV1.2 sodium channels: pharmacological evaluation and structure-property relationships” (Bioorg Med Chem, 2009).
Activity calls are given as the source filed them. The rule behind the calls is not given here.

Experiments:
[1] = target: T1, Sodium channel protein type 2 subunit alpha (Homo sapiens, UniProt Q99250); experiment: Inhibition of human Nav1.2 channel expressed in HEK cells at 100 uM by patch-clamp electrophysiology method; type: cell-based; conditions: HEK293
Target sequence in this assay (Q99250 whole entry, looked up): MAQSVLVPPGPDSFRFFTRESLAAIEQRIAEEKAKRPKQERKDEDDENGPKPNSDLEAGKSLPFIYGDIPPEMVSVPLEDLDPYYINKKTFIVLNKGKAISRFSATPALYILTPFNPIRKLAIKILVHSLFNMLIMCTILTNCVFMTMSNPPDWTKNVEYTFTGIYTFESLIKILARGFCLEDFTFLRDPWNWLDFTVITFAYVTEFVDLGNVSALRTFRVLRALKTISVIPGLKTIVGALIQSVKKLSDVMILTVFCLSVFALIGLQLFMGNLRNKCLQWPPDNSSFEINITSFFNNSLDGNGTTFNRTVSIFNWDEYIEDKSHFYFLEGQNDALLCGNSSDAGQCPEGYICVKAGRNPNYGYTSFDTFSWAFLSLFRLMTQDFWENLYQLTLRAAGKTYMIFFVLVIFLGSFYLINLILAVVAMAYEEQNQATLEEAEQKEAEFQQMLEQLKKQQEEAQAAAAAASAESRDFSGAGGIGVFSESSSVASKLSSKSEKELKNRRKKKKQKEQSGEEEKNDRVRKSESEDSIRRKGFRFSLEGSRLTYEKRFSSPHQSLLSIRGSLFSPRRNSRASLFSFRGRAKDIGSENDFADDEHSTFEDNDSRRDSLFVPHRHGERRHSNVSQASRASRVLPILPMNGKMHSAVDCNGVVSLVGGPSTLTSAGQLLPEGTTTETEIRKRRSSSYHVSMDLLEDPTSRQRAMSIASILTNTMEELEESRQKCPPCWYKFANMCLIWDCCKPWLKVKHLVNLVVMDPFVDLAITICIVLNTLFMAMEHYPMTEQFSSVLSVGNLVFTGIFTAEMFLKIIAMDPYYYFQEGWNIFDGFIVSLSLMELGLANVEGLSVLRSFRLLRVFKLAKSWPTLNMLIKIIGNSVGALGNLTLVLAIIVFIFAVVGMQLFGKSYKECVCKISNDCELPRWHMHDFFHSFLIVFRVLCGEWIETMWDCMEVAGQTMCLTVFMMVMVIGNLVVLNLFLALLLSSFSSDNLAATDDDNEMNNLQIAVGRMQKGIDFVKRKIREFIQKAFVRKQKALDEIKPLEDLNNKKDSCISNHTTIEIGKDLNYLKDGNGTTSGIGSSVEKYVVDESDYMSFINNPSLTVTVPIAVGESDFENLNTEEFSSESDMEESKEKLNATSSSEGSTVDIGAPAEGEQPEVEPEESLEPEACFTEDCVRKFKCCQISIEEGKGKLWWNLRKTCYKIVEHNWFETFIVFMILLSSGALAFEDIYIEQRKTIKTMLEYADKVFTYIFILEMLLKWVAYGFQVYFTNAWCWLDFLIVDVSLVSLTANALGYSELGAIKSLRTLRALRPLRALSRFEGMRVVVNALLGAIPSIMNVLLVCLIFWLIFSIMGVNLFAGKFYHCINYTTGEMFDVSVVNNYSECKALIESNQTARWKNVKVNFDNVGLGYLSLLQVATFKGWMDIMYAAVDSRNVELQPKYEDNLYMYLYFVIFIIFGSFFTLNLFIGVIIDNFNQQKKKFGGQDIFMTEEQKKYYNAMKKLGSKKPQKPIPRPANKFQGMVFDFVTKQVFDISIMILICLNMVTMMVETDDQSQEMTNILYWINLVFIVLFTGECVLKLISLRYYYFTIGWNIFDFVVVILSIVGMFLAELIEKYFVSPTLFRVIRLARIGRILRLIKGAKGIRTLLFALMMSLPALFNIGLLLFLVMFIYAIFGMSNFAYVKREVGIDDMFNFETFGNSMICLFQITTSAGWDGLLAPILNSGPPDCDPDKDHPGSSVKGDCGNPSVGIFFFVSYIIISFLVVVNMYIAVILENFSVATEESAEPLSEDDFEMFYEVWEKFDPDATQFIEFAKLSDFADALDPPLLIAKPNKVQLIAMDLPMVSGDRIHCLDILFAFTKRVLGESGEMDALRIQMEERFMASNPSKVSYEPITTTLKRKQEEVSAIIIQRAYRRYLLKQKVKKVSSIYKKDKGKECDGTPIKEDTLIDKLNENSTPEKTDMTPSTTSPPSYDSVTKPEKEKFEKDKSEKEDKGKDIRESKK

[2] = target: T1, Sodium channel protein type 2 subunit alpha; experiment: Inhibition of human Nav1.2 channel expressed in HEK cells by patch-clamp electrophysiology method; type: cell-based, HEK293
Target sequence in this assay (Q99250 whole entry): as the sequence (Q99250 whole entry, looked up) above

[3] = target: T1, Sodium channel protein type 2 subunit alpha; experiment: Inhibition of human Nav1.2 channel expressed in HEK cells at 10 uM by patch-clamp electrophysiology method; type: cell-based; conditions: HEK293
Target sequence in this assay (Q99250 whole entry, looked up): as above

[4] = Dissociation constant, pKa by potentiometric pH-metric method; type: physicochemical
[5] = Octanol-buffer partition coefficient, log D at pH 7.4 by shake-flask method; type: physicochemical

Row | SMILES | inhibition [1] [%] | IC50 [2] [nM] | inhibition [3] | pKa [4] | logD [5]
1 | O=[N+]([O-])c1ccc(-c2nc(-c3cccc(C(F)(F)F)c3)c[nH]2)cc1 | 100 | 2500 | 86.9% | – | –
2 | O=[N+]([O-])c1ccc(-c2c[nH]c(-c3ccccc3)n2)cc1 | 30.3 | – | inactive | 5.12 | 3.95
3 | O=[N+]([O-])c1ccc(-c2nc(-c3ccccc3)c[nH]2)cc1 | 92.6 | – | 57.1% | 4.74 | 4.06
4 | O=[N+]([O-])c1cccc(-c2c[nH]c(-c3ccccc3)n2)c1 | 85.8 | – | 15.6% | 4.82 | 3.9
5 | c1ccc(-c2c[nH]c(-c3ccccc3)n2)cc1 | 80.5 | 40600 | 7.8% | 5.65 | 3.72
6 | COc1ccc(-c2nc(-c3ccccc3)c[nH]2)cc1 | – | – | – | 6.03 | 3.62
7 | COc1ccc(-c2c[nH]c(-c3ccccc3)n2)cc1 | 33.3 | – | inactive | 5.83 | 3.66
8 | Clc1ccc(-c2c[nH]c(-c3ccccc3)n2)cc1 | 96.6 | – | 31.5% | 5.47 | 4.53
9 | Nc1nnc(-c2cccc(Cl)c2Cl)c(N)n1 [LAMOTRIGINE] | 35.1 | > 100000 | 12.1% | – | –
10 | Clc1ccc(-c2nc(-c3ccccc3)c[nH]2)cc1 | 100 | 1400 | 92.5% | 5.37 | 4.27
11 | COc1cccc(-c2c[nH]c(-c3ccccc3)n2)c1 | 35.6 | – | 14.2% | 5.58 | 3.74

Other lines, results leading:

Row | inhibition [1] [%] | IC50 [2] [nM] | inhibition [3] | pKa [4] | logD [5] | SMILES
12 | 95.2 | – | 49.2% | 5.11 | 4.54 | FC(F)(F)c1cccc(-c2nc(-c3ccccc3)c[nH]2)c1
13 | 92.2 | – | 7.5% | 5.12 | 4.54 | Clc1cccc(-c2nc(-c3ccccc3)c[nH]2)c1
14 | 41.7 | – | inactive | 5.57 | 3.84 | COc1cccc(-c2nc(-c3ccccc3)c[nH]2)c1
15 | 43.6 | > 100000 | 27.5% | – | – | FC(F)(F)c1cccc(-c2c[nH]c(-c3ccc(Cl)cc3)n2)c1
16 | – | – | – | 5.45 | 4.76 | Clc1cccc(-c2c[nH]c(-c3ccccc3)n2)c1
17 | 100 | 2700 | 82.9% | 5.27 | 4.72 | FC(F)(F)c1cccc(-c2c[nH]c(-c3ccccc3)n2)c1
18 | 100 | 1400 | 91.6% | 5.31 | 4.78 | FC(F)(F)c1ccc(-c2c[nH]c(-c3ccccc3)n2)cc1
19 | – | – | – | 5.19 | 4.9 | FC(F)(F)c1ccc(-c2nc(-c3ccccc3)c[nH]2)cc1
20 | 20.4 | – | inactive | 4.92 | 3.89 | O=[N+]([O-])c1cccc(-c2nc(-c3ccccc3)c[nH]2)c1
21 | 100 | 200 | 100% | – | – | FC(F)(F)c1cccc(-c2c[nH]c(-c3cccc(C(F)(F)F)c3)n2)c1
